Test results as given in patent US20250066452A1, “SYNTHETIC AMPHIPATHIC HELICAL PEPTIDES AND TREATMENT METHODS USING SYNTHETIC AMPHIPATHIC HELICAL PEPTIDES” (UNIVERSITY OF MARYLAND, BALTIMORE, priority 2022, published 2025).
No end group written: not given here.

Experiments:
[1] = test system: Complete Freund's Adjuvant (CFA) animal model of chronic inflammatory pain; assay: Thermal hyperalgesia test (incremental hot plate) in CFA model of chronic inflammatory pain; assay type: in vivo, mice; settings: for heat hyperalgesia compared to the inactive L3D-L37pA peptide: Example 3, FIGS. 5(a)-5(e), topical application once a day; for withdrawal latencies to thermal stimuli: CFA in left paw
Description: The L37pA peptide having the sequence […] (SEQ ID NO: 2) was synthesized by a solid-phase procedure. […] The L37pA and L3D-37pA peptides were formulated into both an intramuscular injectable preparation and a hydrogel or lotion preparation. The intramuscular (IM) injectable formulation contains 0.5 μg/μl of the peptide, with an injection dose of 2 μl/g mouse weight, which equals approximately 20 μg peptide per injection. The hydrogel and lotion formulations each contains 0.2 mg/ml of the peptide. 20-50 μl of the formulations are applied, which is approximately 4-10 μg peptide per single skin treatment. Topical hydrogel and lotion formulations containing a vehicle without any peptide were prepared as additional negative controls.
In this experiment, the peptide was administered via intramuscular injections. The first group of mice (“CFA group”) were injected with 30 μl of Complete Freund's Adjuvant (CFA) in the plantar surface of the left hind paw. The second group of mice (“Vehicle Group”) were injected with Vehicle (saline) instead of CFA. For each of the CFA and Vehicle Groups, the mice were then injected once a day with the following formulations, with “n” representing the number of mice receiving each formulation: […]
Thermal hyperalgesia was performed before the CFA injection. The measurement of baseline thermosensitivity was actually carried out before time 0, but it was assumed that the baseline remained the same at time 0. Injection of CFA in the paw and the intramuscular injection of peptide were performed at the same time. Injections of CFA and peptides were performed in left paws. The right paws of the mice remained intact and were used for comparison.
After administering the L37pA or L3D-37pA peptide, the thermal hyperalgesia test was performed for 30 minutes at 3, 24, and 72 hours post CFA-injection. In the thermal hyperalgesia test, an incremental hot plate with an automatic cut-off temperature of 50° C. was used to induce the nocifensive behaviors of licking a hind paw to identify the thresholds for noxious heat and assess the thermal hyperalgesia. The temperature of the plate at the time when the licking occurred was recorded. The peptides were injected every single day and at 30 minutes prior to the behavior test. In addition, to investigate the effects of the peptides on inflammatory swelling caused by the CFA injection, the thicknesses of the left and right hind paws of the mice were measured post-peptide administration for signs of inflammation. In the figures, *p≤0.05, **p≤0.01, and ***p≤0.001 show comparisons to the Vehicle/L3D-37pA controls at each timepoint.
In this experiment, the peptide was administered topically once a day. The first group of mice (“CFA group”) were injected with 30 μl of Complete Freund's Adjuvant (CFA) in the plantar surface of the left hind paw. The second group of mice (“Vehicle Group”) were injected with Vehicle (saline) instead of CFA. For each of the CFA and Vehicle groups, the topical formulation was then administered to the mice according to the following experiment design:
The topical application of the peptides was carried out 21 hours after the saline or CFA injection and applied […] in the following days. In case of topical application of peptide, the peptides were applied 3 hours before the second measurement of thermosensitivity and applied […] afterwards. Thermal hyperalgesia was performed before administration and after administering the L37pA, L3D-37 pA, or vehicle, at 30 minutes after administration. The thermal hyperalgesia test was performed as described above. In addition, the thicknesses of the left and right hind paws of the mice were measured post-peptide administration for signs of inflammation. In the figures, *p 0.05, **p 0.01, and ***p 0.001 show comparisons to the saline/L3D-37pA controls at each timepoint.
The applicant performed heat hyperalgesia tests similar to the manner discussed above in Example 1. […]

CD36 = biological target: T1, CD36 (Homo sapiens, UniProt P16671); assay: IL-8 in conditioned medium (ELISA) of CD36-expressing HEK293 cells after 20 hours incubation with CD36 ligands; assay type: cell-based; settings: for IL-8 produced by cells treated with the ligand: CD36-expressing HEK293 cells, increasing ligand concentrations, 20 hours (FIG. 8)
T1 construct: expressed in transfected cells; host or cells: HEK293
T1 sequence (P16671 whole entry): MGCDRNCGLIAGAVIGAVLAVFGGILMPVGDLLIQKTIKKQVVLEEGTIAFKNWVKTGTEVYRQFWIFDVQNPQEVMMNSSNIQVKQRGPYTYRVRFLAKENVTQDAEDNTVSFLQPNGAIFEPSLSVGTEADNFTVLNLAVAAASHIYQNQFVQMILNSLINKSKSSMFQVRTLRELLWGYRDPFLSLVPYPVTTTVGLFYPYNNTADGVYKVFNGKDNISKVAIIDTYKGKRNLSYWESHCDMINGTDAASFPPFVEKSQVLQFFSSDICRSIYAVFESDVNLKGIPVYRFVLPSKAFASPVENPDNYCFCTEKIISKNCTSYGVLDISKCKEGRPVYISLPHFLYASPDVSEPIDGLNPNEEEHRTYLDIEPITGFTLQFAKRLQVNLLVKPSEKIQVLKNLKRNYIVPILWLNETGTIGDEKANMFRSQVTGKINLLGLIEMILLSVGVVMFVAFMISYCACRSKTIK
Description: (§1) Following 20 hours incubation of wild-type (WT) and CD36-expressing (CD36+) HEK293 cells with increasing concentrations of CD36 ligands, the IL-8 levels were determined in conditioned medium by ELISA.
Following 20 hours incubation of CD36-expressing cells with the indicated amounts of the ligands, the IL-8 levels were determined in conditioned medium.
(§2) To study this, the applicant conducted cell culture experiments using wildtype (WT) and CD36+ expressing (CD36+) HEK293 cells, treated with increasing amounts of CD36 ligands. Specifically, the ligands tested were the PAMP lipopolysaccharide (LPS) and the DAMPs high mobility group box 1 protein (HMGB1), Histone H3B, and heat shock protein 60 (HSP60). […] Similarly to HSP60, it is presumed that HSP70 and HSP90 also cause inflammation mediated by the CD36 receptor, and which may be alleviated by the disclosed peptides.
Additionally, the applicant studied the effects of the above-referenced SAHP L37pA as an inhibitor of CD36-dependent, PAMP/DAMP-induced pro-inflammatory response. See FIGS. 9(a)-9(c) To study this, the applicant conducted cell culture experiments using CD36+ HEK293 cells, treated with increasing amounts of CD36 ligands. […] As controls, no treatment, L37pA alone, and L3D alone were administered.
As controls, no treatment, L37pA alone, and L3D alone were administered. […] L37pA was especially effective in the case of 1 μg/ml and 2.5 μg/ml HMGB1, relative to administrations of HMGB1 alone.
In FIG. 9(c), the DAMP Histone H3B was administered in the amount of 25 μg/ml alone, in combination with 10 μg/ml L37pA, 25 μg/ml L37pA, 10 μg/ml L3D and 25 µg/ml L3D. As controls, no treatment, 10 μg/ml L37pA alone, 25 μg/ml L37pA alone, 10 μg/ml L3D alone, and 25 μg/ml L3D alone were administered.

[2] = test system: wild-type (WT) HEK293 cells; assay: IL-8 in conditioned medium (ELISA) of wild-type HEK293 cells after 20 hours incubation with CD36 ligands; assay type: cell-based; settings: wildtype HEK293 cells; increasing ligand concentrations; 20 hours (FIG. 8)
Description: as §1, §2

mice = assay: Observation of adverse effects on repetitive daily skin application; assay type: in vivo

EKLLELLKKLLELLKKLLPDWLKAFYDKVAEKLKEAF [ELK-B-P-18A]
heat hyperalgesia compared to the inactive L3D-L37pA peptide ([1]; CFA): improved heat hyperalgesia compared to the inactive L3D-L37pA peptide at 3 hours, and particularly improved heat hyperalgesia at 7 days

EKLLELLKKLLELLKKLLPEKLLELLKKLLELLKKLL [ELK-B]
heat hyperalgesia compared to the inactive L3D-L37pA peptide ([1]; CFA): slightly improved heat hyperalgesia compared to the active L3D-L37pA peptide at 1 day, and similar heat hyperalgesia at other timepoints

lipopolysaccharide [LPS]
IL-8 produced by cells treated with the ligand (CD36): significant amount of IL-8 | IL-8 produced by cells treated with the ligand [2]: minimal amount of interleukin 8

DWLKAFYDKVAEKLKEAFPDWLKAFYDKVAEKLKEAF [Peptide L37pA]
skin irritation or other adverse side effects (mice; chronic topical administration in the therapeutic range of doses): does not induce skin irritation or other adverse side effects | adverse effects (general toxicity, behavioral changes, weight loss, skin redness, skin erosions) (mice; up to 14 repetitive daily skin applications of hydrogel formulation): no adverse effects

L3D-37pA: inactive L37pA peptide where three L-lysine's in each A18 were replaced with D-lysine's disrupting the helical structure; negative control (DWLKAFYDKVAEKLKEAFPDWLKAFYDKVAEKLKEAF; also: three of the four Lys in each A18 segment are D-Lys, places not given here) [Peptide L3D-37pA]
production of IL-8 relative to LPS alone (CD36; 10 ng/ml and 100 ng/ml LPS, 10 μg/ml peptide, CD36+ HEK293 cells, 20 hours): ineffective or only slightly effective | production of IL-8 relative to Histone H3B alone (CD36; 25 μg/ml Histone H3B, 10 μg/ml and 25 μg/ml peptide, CD36+ HEK293 cells, 20 hours): ineffective or only slightly effective | production of IL-8 relative to HMGB1 alone (CD36; 0.25, 1 and 2.5 μg/ml HMGB1, 10 μg/ml peptide, CD36+ HEK293 cells, 20 hours): ineffective or only slightly effective | withdrawal latencies to thermal stimuli ([1]; intramuscular peptide approx. 20 μg per injection once a day, 3 hours after CFA (FIG. 2(a))): reduction was even more exaggerated | withdrawal latencies to thermal stimuli ([1]; intramuscular peptide approx. 20 μg per injection once a day, 24 hours after CFA (FIG. 2(a))): only showed a minimal increase | withdrawal latencies to thermal stimuli ([1]; intramuscular peptide approx. 20 μg per injection once a day, three days after CFA (FIG. 2(a))): still showed a significant reduction of withdrawal latencies | withdrawal latencies to thermal stimuli ([1]; topical application 0.2 mg/ml, 24 hours and 3 days after CFA (FIG. 3(a))): remained reduced with only slight increase | pain sensation in response to stimuli ([1]; CFA model, topical hydrogel or lotion, and local intramuscular injection): did not show any pain-reducing activities | paw withdrawal temperature of inflamed paws ([1]; CFA, topical hydrogel or local intramuscular injection, within 3 days post-CFA (FIGS. 2(a), 3(a))): without effect | heat hyperalgesia (response temperature) ([1]; Example 2, FIG. 4, CFA, intramuscular injection, 24 h, 3 d, 7 d): did not reduce heat hyperalgesia at any time point

high mobility group box 1 protein [HMGB1]
IL-8 produced by cells treated with the ligand (CD36): significant amount of IL-8 | IL-8 produced by cells treated with the ligand [2]: minimal amount of interleukin 8
